# Where “and” joins values, the source holds several entries; their conditions need not be identical. Identical values can stand only once. Like-named read-outs stand apart in the source and are kept apart here.
# Key:
# C. parvum [1] = assay: 48 h Cryptosporidium growth inhibition assay; type: cell-based, Cryptosporidium parvum; details: for EC90: compound added 3 h post-infection, read at 48 h; for EC50: read-out: 0 − 48 h V. villosa lectin (asexual): EC50, asexual growth assay, first 48 h, range in brackets
# Excerpt: As a first step in developing specific Cryptosporidium mode of action assays, we conducted a series of light microscopy time-lapse and transmission electron microscopy (TEM) time course experiments in order to precisely define C. parvum development within the HCT-8 cell culture system. […] This synchronicity was exploited by modifying a previously developed high-content microscopy assay. These assay modifications enabled the evaluation of several key events within the life cycle: host cell invasion, intracellular replication, host cell egress and establishment of new parasitophorous vacuoles, and sexual differentiation. […] Since the methods all used automated liquid handling, imaging, and image analysis, the assay methods all incorporated nuclear staining to monitor host cell numbers and enable recognition of HCT-8 cell monolayer damage, for example as an artifact from a malfunctioning plate washer or from unanticipated cytotoxicity of the compounds.
# Human ileocecal adenocarcinoma (HCT-8) cells were purchased from ATCC (catalog# CCL-244) and cultured in ATCC modified RPMI-1640 medium (Gibco, catalog# A10491–01), supplemented with 10% heat-inactivated fetal bovine serum (Sigma-Aldrich, catalog# 12306C) and 120 U/mL penicillin and 120 μg/mL streptomycin (Gibco, catalog# 15140-122) (culture media). […] For all experiments, HCT-8 cells between passages 9 and 39 were used. C. parvum (Iowa isolate) oocysts were purchased from Bunchgrass Farm (Deary, ID), stored at 4 °C and used within 5 months of collection from an infected calf. To induce excystation, oocysts were first treated with 10 mM hydrochloric acid for 10 min at 37 °C, spun at 14,000×g for 4.5 min at room temperature, treated with 2 mM sodium taurocholate for 10 min at 16 °C, spun as before, and resuspended in culture media for infection.
# A modification of a previously reported immunofluorescence assay was used to determine the EC50 and EC90 of compounds[13]. HCT-8 cells were grown to ≥ 90% confluence in 384-well plates (Corning, catalog# 353962) and infected with 5500 oocysts per well after they were induced for excystation as described above. Different concentrations of compounds were added 3 h post-infection and plates were incubated for another 45 h in a 5% CO2 incubator at 37 °C. Wells were then washed 3 times with PBS containing 111 mM D-galactose (PBS-D-gal), fixed with 4% paraformaldehyde (PFA) in PBS for 15 min at room temperature, permeabilized with 0.25% Triton X-100 for 10 min at 37 °C, washed 3 times with PBS with 0.1% Tween 20, and blocked with 4% bovine serum albumin (BSA) in PBS for 2 h at 37 °C or 4 °C overnight. Parasitophorous vacuoles were stained with 1.33 µg/mL of fluorescein-labeled Vicia villosa lectin (Vector Laboratories, catalog# FL-1231) diluted in 1% BSA in PBS with 0.1% Tween 20 for 1 h at 37 °C, followed by addition of Hoechst 33258 (AnaSpec, catalog# AS-83219) at 0.09 mM diluted in water for another 15 min at 37 °C. Wells were then washed 5 times with PBS containing 0.1% Tween 20. A Nikon Eclipse Ti2000 epifluorescence microscope with an automated stage was programmed using NIS-Elements Advanced Research software (Nikon, USA) to focus on the center of each well and take a 3 × 3 or 6 × 6 composite image using an EXi blue fluorescence microscopy camera (QImaging, Canada) with a 20 × objective (NA = 0.45). Nuclei and parasite images were separately exported as.tif files and analyzed using macros developed on the ImageJ platform (National Institutes of Health)[13].
# Cryptosporidium [2] = details: cited from earlier work
# Cryptosporidium [3] = test system: Cryptosporidium; set-up: method as in earlier work; details: ref Castellanos-Gonzalez, et al. 2013. JID. and Love, et al. 2017. PLoS NTD.; cited from earlier work
# C. parvum [4] = details: cited from earlier work; for activity in NSG mouse model: ref Jumani, et al. 2018. AAC.
# Cryptosporidium [5] = test system: Cryptosporidium; set-up: method as in Gorla, et al. 2014. AAC.; details: ref Gorla, et al. 2014. AAC.; cited from earlier work
# [6] = Cryptosporidium parvum, HCT-8, read-out: Regular 3 to 48 h assay in vitro EC90, C. parvum in HCT-8 cells
# [7] = read-out: Regular 3 to 48 h assay in vitro EC90, C. parvum in HCT-8 cells
# [8] = ref Love, et al. 2017. PLoS NTD.
# [9] = Cryptosporidium parvum, read-out: Regular 3 to 48 h assay in vitro EC90, C. parvum in HCT-8 cells
smiles,measurement,setting,value
CN(C)C[C@H](O)Cn1c2ccc(Br)cc2c2cc(Br)ccc21 (racemic) [Wiskostatin],EC90,C. parvum [1]; [6],11.3 µM
same,EC90,C. parvum [1]; [7],11.3 µM
c1ccc(CNc2nc(NCc3ccccc3)c3ccccc3n2)cc1 [B-23],EC90,C. parvum [1]; [7],10.8 µM
[H]/N=C(/NCCCCC)N/N=C/c1c[nH]c2ccc(OC)cc12 [Tegaserod],EC90,C. parvum [1]; [6],10.3 µM
CSc1ccccc1C(=O)Nc1nc(-c2ccccn2)cs1 [MMV001246],EC90,C. parvum [1]; [7],5.39 µM
Cc1cccc(-n2ncc3c(O)nc(-n4nc(C)cc4NC(=O)c4cc5ccccc5o4)nc32)c1 [C-1],EC90,C. parvum [1]; [7],0.65 µM
CCOc1ccc2cc(-c3nn(CC4CCN(C)CC4)c4ncnc(N)c34)ccc2c1 [BKI-1294],EC90,C. parvum [1]; [7],22.4 µM
same,anticryptosporidial activity in the acute IFN-γ knockout mouse infection model,"Cryptosporidium [2]; ref Castellanos-Gonzalez, et al. 2013. JID. and Love, et al. 2017. PLoS NTD.",previously demonstrated anticryptosporidial activity
same,anticryptosporidial activity in SCID beige mice,Cryptosporidium [3],previously demonstrated anticryptosporidial activity
NC[C@@H]1O[C@H](O[C@H]2[C@@H](O)[C@H](O[C@@H]3[C@@H](O)[C@H](N)C[C@H](N)[C@H]3O[C@H]3O[C@H](CO)[C@@H](O)[C@H](O)[C@H]3N)O[C@@H]2CO)[C@H](N)[C@@H](O)[C@@H]1O [Paromomycin],EC90,C. parvum [1]; [6],2390 µM
same,activity in NSG mouse model,C. parvum [4],active
CCC(C)n1ncn(-c2ccc(N3CCN(c4ccc(OCC5COC(Cn6cncn6)(c6ccc(Cl)cc6Cl)O5)cc4)CC3)cc2)c1=O (stereo not shown) [Itraconazole],EC90,C. parvum [1]; [6],7.24 µM
COc1ccc(Nc2nc(NCc3ccccc3Cl)c3ccccc3n2)cc1Cl [B-13],EC90,C. parvum [1]; [7],1.39 µM
COc1ccc(NC(=O)N2CCCCN3C(CN(C)C)C(c4ccc(C#Cc5ccccc5)cc4)C3C2)cc1 (stereo not shown) [BRD7929],EC90,C. parvum [1]; [7],0.15 µM
CN(C)S(=O)(=O)c1ccc(C(=O)N2CCN(c3ccc4nncn4n3)CC2)cc1 [D-44],EC90,C. parvum [1]; [7],11.6 µM
O=C(CC1NCCCC1O)Cn1cnc2cc(Br)c(Cl)cc2c1=O (stereo not shown) [Halofuginone],EC90,C. parvum [1]; [6],0.34 µM
CCOc1ccc(Cl)c2c1B(O)OC2CN (stereo not shown) [AN6426],EC90,C. parvum [1]; [7],19.5 µM
c1ccc(CNc2nc(NC3CCCC3)nc3ccccc23)cc1 [B-5],EC90,C. parvum [1]; [7],7.22 µM
Oc1c(CN2CCN(c3ccccc3F)CC2)cc(Br)c2cccnc12 [A-6],EC90,C. parvum [1]; [7],1.33 µM
Oc1c(C(Nc2ccccn2)c2cccc(Oc3ccccc3)c2)ccc2cccnc12 (stereo not shown) [A-2],EC90,C. parvum [1]; [7],1.34 µM
O=C(NC(c1ccccc1)c1ccc2cccnc2c1O)c1ccccc1 (stereo not shown) [A-5],EC90,C. parvum [1]; [7],4.35 µM
CN(C)c1ccc(C(=C2C=CC(=[N+](C)C)C=C2)c2ccc(N(C)C)cc2)cc1 [Gentian Violet],EC90,C. parvum [1]; [7],1.05 µM
O=C(Nc1ccc(Cl)cc1)N1CCN(c2ccc3nncn3n2)CC1 [D-1],0 - 48 h V. villosa lectin (asexual): Mean % Inhibition (parasites),"C. parvum [1]; D-1 at log conc (µM) 0.00, replicates 1-3 in separate columns",-13.99% and -26.93% and 12.39%
same,0 - 48 h V. villosa lectin (asexual): Mean % Inhibition (parasites),"C. parvum [1]; D-1 at log conc (µM) 0.30, replicates 1-3 in separate columns",44.90% and 34.43% and 28.35%
same,0 - 48 h V. villosa lectin (asexual): Mean % Inhibition (parasites),"C. parvum [1]; D-1 at log conc (µM) 0.48, replicates 1-3 in separate columns",62.14% and 71.97% and 62.62%
same,0 - 48 h V. villosa lectin (asexual): Mean % Inhibition (parasites),"C. parvum [1]; D-1 at log conc (µM) 0.60, replicates 1-3 in separate columns",81.17% and 79.33% and 75.56%
same,0 - 48 h V. villosa lectin (asexual): Mean % Inhibition (parasites),"C. parvum [1]; D-1 at log conc (µM) 0.85, replicates 1-3 in separate columns",91.46% and 90.48% and 90.58%
same,0 - 48 h V. villosa lectin (asexual): Mean % Inhibition (parasites),"C. parvum [1]; D-1 at log conc (µM) 1.08, replicates 1-3 in separate columns",93.34% and 92.97% and 93.35%
same,0 - 48 h V. villosa lectin (asexual): Mean % Inhibition (parasites),"C. parvum [1]; D-1 at log conc (µM) 1.40, replicates 1-3 in separate columns",93.98% and 94.31% and 94.76%
same,0 - 48 h V. villosa lectin (asexual): Mean % Inhibition (parasites),"C. parvum [1]; D-1 at log conc (µM) -0.70, replicates 1-3 in separate columns",-20.95% and -21.90% and -17.53%
same,0 - 48 h V. villosa lectin (asexual): Mean % Inhibition (parasites),"C. parvum [1]; D-1 at log conc (µM) -1.40, replicates 1-3 in separate columns",-23.49% and -23.30% and -25.37%
same,EC50,C. parvum [1],2.1 µM
same,EC90,C. parvum [1]; [7],5.1 µM
same,efficacy in chronic NSG mouse model,C. parvum [4],efficacious
same,activity in NSG mouse model,C. parvum [4],Active
same,efficacy in acute IFN-γ KO mouse model,Cryptosporidium [2],efficacious
c1ccc(CNc2nc(Nc3ccccc3)nc3ccccc23)cc1 [B-1],0 - 48 h V. villosa lectin (asexual): Mean % Inhibition (parasites),"C. parvum [1]; B-1 at log[MMV006169] (µM) 0.22, replicates 1-2",61.21% and 81.70%
same,0 - 48 h V. villosa lectin (asexual): Mean % Inhibition (parasites),"C. parvum [1]; B-1 at log[MMV006169] (µM) 0.52, replicates 1-2",87.47% and 92.32%
same,0 - 48 h V. villosa lectin (asexual): Mean % Inhibition (parasites),"C. parvum [1]; B-1 at log[MMV006169] (µM) 0.82, replicates 1-2",91.12% and 90.37%
same,0 - 48 h V. villosa lectin (asexual): Mean % Inhibition (parasites),"C. parvum [1]; B-1 at log[MMV006169] (µM) 1.00, replicates 1-2",88.49% and 90.28%
same,0 - 48 h V. villosa lectin (asexual): Mean % Inhibition (parasites),"C. parvum [1]; B-1 at log[MMV006169] (µM) -0.18, replicates 1-2",5.34% and 39.84%
same,0 - 48 h V. villosa lectin (asexual): Mean % Inhibition (parasites),"C. parvum [1]; B-1 at log[MMV006169] (µM) -0.65, replicates 1-2",-11.45% and 6.00%
same,0 - 48 h V. villosa lectin (asexual): Mean % Inhibition (parasites),"C. parvum [1]; B-1 at log[MMV006169] (µM) -1.13, replicates 1-2",-7.55% and -4.41%
same,0 - 48 h V. villosa lectin (asexual): Mean % Inhibition (parasites),"C. parvum [1]; B-1 at log[MMV006169] (µM) -1.61, replicates 1-2",-3.87% and -15.36%
same,0 - 48 h V. villosa lectin (asexual): Mean % Inhibition (parasites),"C. parvum [1]; B-1 at log[MMV006169] (µM) -2.08, replicates 1-2",-14.75% and -13.18%
same,EC50,C. parvum [1],1 µM
same,EC90,C. parvum [1]; [7],2.27 µM
CC(=NOCCN)c1cccc(C(C)(C)NC(=O)Nc2ccc(Cl)c(C(F)(F)F)c2)c1 [P257],EC90,C. parvum [1]; [7],34.3 µM
same,efficacy in the acute IL-12 knockout mouse model of cryptosporidiosis,Cryptosporidium [5],efficacious
CC(C)/N=c1\cc2n(-c3ccc(Cl)cc3)c3ccccc3nc-2cc1Nc1ccc(Cl)cc1 [Clofazimine],EC90,C. parvum [1]; [6],19.6 µM
same,efficacy in chronic NOD SCID gamma (NSG) mouse model,C. parvum [4],not efficacious
same,activity in NOD SCID γ mouse model,C. parvum [4]; [8],inactive
same,"efficacy in acute, self-resolving IFN-γ KO mouse model",Cryptosporidium [2],efficacious
same,activity in IFN-γ knockout mouse model,Cryptosporidium [2]; [8],active
Cc1cccc(-n2ncc3c(=O)[nH]c(-n4nc(C)cc4NC(=O)C4CCCC4)nc32)c1 [C-5],EC90,C. parvum [1]; [7],4.99 µM
C[C@H]1CCC[C@H](C[C@H]2Cc3cc(O)cc(O)c3C(=O)O2)O1 [Cladosporin],EC90,C. parvum [1]; [6],0.49 µM
Cc1cccc(-n2ncc3c(=O)[nH]c(-n4nc(C)cc4NC(=O)C4CC4)nc32)c1 [C-4],EC90,C. parvum [1]; [7],5.17 µM
O=C(Nc1ccc(Cl)c(Cl)c1)N1CCN(c2ccc3nncn3n2)CC1 [D-28],EC90,C. parvum [1]; [7],1.5 µM
Cc1cn(-c2cc(NC(=O)c3ccc(C)c(Nc4nccc(-c5cccnc5)n4)c3)cc(C(F)(F)F)c2)cn1 [Nilotinib],EC90,C. parvum [1]; [9],16.5 µM
O=c1[nH]c(=O)n([C@H]2C[C@H](O)[C@@H](CO)O2)cc1F [Floxuridine],EC90,C. parvum [1]; [9],0.14 µM
CC(C)c1c(C(=O)Nc2ccccc2)c(-c2ccccc2)c(-c2ccc(F)cc2)n1CC[C@@H](O)C[C@@H](O)CC(=O)O [Atorvastatin],EC90,C. parvum [1]; [6],2.18 µM
O=C(Nc1nc(-c2ccccn2)cs1)c1ccccc1Br [MMV665909],EC90,C. parvum [1]; [7],6.84 µM
CCOc1ccc2cc(-c3nn(CC4CCN(C)CC4)c4ncnc(N)c34)ccc2n1 [BKI-1369],EC90,C. parvum [1]; [7],17.7 µM
CC(=O)O[C@@]12CO[C@@H]1C[C@H](O)[C@@]1(C)C(=O)[C@H](O)C3=C(C)[C@@H](OC(=O)[C@H](O)[C@@H](NC(=O)OC(C)(C)C)c4ccccc4)C[C@@](O)([C@@H](OC(=O)c4ccccc4)[C@H]21)C3(C)C [Docetaxel],EC90,C. parvum [1]; [6],1 µM
